Measured values published in the supplement of paper PMC8612539.
≈ marks a conversion by molar mass, not a printed value.

Key:
Mannheimia haemolytica = test: minimum inhibitory concentration (MIC)
Procedure: (§1)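 Broth microdilution MIC (Sensititre BOPO7F bovine plate, CLSI methods) of 19 antimicrobials against field isolates of P. multocida, M. haemolytica, H. somni (deep nasopharyngeal swabs) and E. coli, Enterococcus spp. (rectal swabs) from weaned dairy heifers. Incubation 16-24 h at 35 C. MIC is the lowest concentration preventing visible growth. Values with <= or > lie at the tested range limits. Trimethoprim-sulfamethoxazole is given as the trimethoprim component of a 1:19 mixture.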

Enterococcus spp. = test: minimum inhibitory concentration (MIC)
Procedure: as §1

CS(=O)(=O)c1ccc([C@@H](O)[C@@H](CF)NC(=O)C(Cl)Cl)cc1 [Florfenicol]
minimum inhibitory concentration [µg/mL]
Conditions | Enterococcus spp. | Mannheimia haemolytica
isolate (source animal id): 2 | 2 (≈ 5.58 µM) | –
isolate (source animal id): 8 | – | 1 (≈ 2.79 µM)
isolate (source animal id): 13 | – | 1 (≈ 2.79 µM)
isolate (source animal id): 18 | – | 2 (≈ 5.58 µM)
isolate (source animal id): 21 | – | 2 (≈ 5.58 µM)
isolate (source animal id): 25 | – | 2 (≈ 5.58 µM)
isolate (source animal id): 27 | – | 1 (≈ 2.79 µM)
isolate (source animal id): 28 | – | 1 (≈ 2.79 µM)
isolate (source animal id): 30 | – | 1 (≈ 2.79 µM)
isolate (source animal id): 31 | – | 1 (≈ 2.79 µM)
isolate (source animal id): 32 | – | 1 (≈ 2.79 µM)
isolate (source animal id): 34 | – | 1 (≈ 2.79 µM)
isolate (source animal id): 35 | > 8 | –
isolate (source animal id): 36 | – | 1 (≈ 2.79 µM)
isolate (source animal id): 37 | – | 1 (≈ 2.79 µM)
isolate (source animal id): 40 | – | 1 (≈ 2.79 µM)
isolate (source animal id): 41 | – | 1 (≈ 2.79 µM)
isolate (source animal id): 42 | 2 (≈ 5.58 µM) | –
isolate (source animal id): 43 | – | 2 (≈ 5.58 µM)
isolate (source animal id): 44 | 2 (≈ 5.58 µM) | –
isolate (source animal id): 46 | – | 1 (≈ 2.79 µM)
isolate (source animal id): 49 | – | 1 (≈ 2.79 µM)
isolate (source animal id): 50 | – | 1 (≈ 2.79 µM)
isolate (source animal id): 51 | – | 1 (≈ 2.79 µM)
isolate (source animal id): 52 | – | 1 (≈ 2.79 µM)
isolate (source animal id): 53 | – | 2 (≈ 5.58 µM)
isolate (source animal id): 55 | – | 1 (≈ 2.79 µM)
isolate (source animal id): 56 | – | 1 (≈ 2.79 µM)
isolate (source animal id): 57 | – | > 8
isolate (source animal id): 79 | 4 (≈ 11.2 µM) | –
isolate (source animal id): 88 | 2 (≈ 5.58 µM) | –
isolate (source animal id): 91 | 2 (≈ 5.58 µM) | –
isolate (source animal id): 92 | 2 (≈ 5.58 µM) | –
isolate (source animal id): 100 | – | 2 (≈ 5.58 µM)
isolate (source animal id): 103 | – | 1 (≈ 2.79 µM)
isolate (source animal id): 107 | – | 2 (≈ 5.58 µM)
isolate (source animal id): 108 | – | 2 (≈ 5.58 µM)
isolate (source animal id): 111 | 2 (≈ 5.58 µM) | –
isolate (source animal id): 112 | – | > 8
isolate (source animal id): 113 | – | > 8
isolate (source animal id): 121 | – | 2 (≈ 5.58 µM)
isolate (source animal id): 122 | > 8 | 2 (≈ 5.58 µM)
isolate (source animal id): 123 | 2 (≈ 5.58 µM) | > 8
isolate (source animal id): 126 | – | > 8
isolate (source animal id): 133 | 2 (≈ 5.58 µM) | > 8
isolate (source animal id): 135 | – | > 8
isolate (source animal id): 138 | – | > 8
isolate (source animal id): 141 | – | > 8
isolate (source animal id): 142 | – | 2 (≈ 5.58 µM)
isolate (source animal id): 145 | – | > 8
isolate (source animal id): 149 | – | 0.5 (≈ 1.4 µM)
isolate (source animal id): 151 | – | 0.5 (≈ 1.4 µM)
isolate (source animal id): 152 | – | 2 (≈ 5.58 µM)
isolate (source animal id): 154 | – | 0.5 (≈ 1.4 µM)
isolate (source animal id): 158 | 2 (≈ 5.58 µM) | –
isolate (source animal id): 159 | – | > 8
isolate (source animal id): 162 | – | > 8
isolate (source animal id): 168 | 2 (≈ 5.58 µM) | –
isolate (source animal id): 169 | 2 (≈ 5.58 µM) | –
isolate (source animal id): 170 | – | > 8
isolate (source animal id): 171 | 4 (≈ 11.2 µM) | 1 (≈ 2.79 µM)
isolate (source animal id): 172 | – | > 8
isolate (source animal id): 173 | – | 1 (≈ 2.79 µM)
isolate (source animal id): 175 | 4 (≈ 11.2 µM) | –
isolate (source animal id): 177 | 4 (≈ 11.2 µM) | –
isolate (source animal id): 179 | – | > 8
isolate (source animal id): 180 | – | > 8
isolate (source animal id): 181 | 2 (≈ 5.58 µM) | –
isolate (source animal id): 182 | 2 (≈ 5.58 µM) | –
isolate (source animal id): 183 | 2 (≈ 5.58 µM) | > 8
isolate (source animal id): 186 | – | > 8
isolate (source animal id): 187 | 2 (≈ 5.58 µM) | > 8
isolate (source animal id): 188 | – | > 8
isolate (source animal id): 190 | 2 (≈ 5.58 µM) | 1 (≈ 2.79 µM)
isolate (source animal id): 191 | – | > 8
isolate (source animal id): 192 | – | 1 (≈ 2.79 µM)
isolate (source animal id): 194 | 2 (≈ 5.58 µM) | –
isolate (source animal id): 195 | 2 (≈ 5.58 µM) | –
isolate (source animal id): 197 | 2 (≈ 5.58 µM) | –
isolate (source animal id): 201 | – | > 8
isolate (source animal id): 202 | – | 1 (≈ 2.79 µM)
isolate (source animal id): 209 | – | 1 (≈ 2.79 µM)
isolate (source animal id): 211 | 2 (≈ 5.58 µM) | > 8
isolate (source animal id): 214 | 2 (≈ 5.58 µM) | –
isolate (source animal id): 220 | – | > 8
isolate (source animal id): 221 | – | > 8
isolate (source animal id): 222 | 2 (≈ 5.58 µM) | –
isolate (source animal id): 223 | 2 (≈ 5.58 µM) | > 8
isolate (source animal id): 228 | 2 (≈ 5.58 µM) | –
isolate (source animal id): 230 | 2 (≈ 5.58 µM) | –
isolate (source animal id): 233 | – | 2 (≈ 5.58 µM)
isolate (source animal id): 235 | 2 (≈ 5.58 µM) | –
isolate (source animal id): 236 | 2 (≈ 5.58 µM) | –
isolate (source animal id): 237 | – | 1 (≈ 2.79 µM)
isolate (source animal id): 239 | 2 (≈ 5.58 µM) | –
isolate (source animal id): 241 | 2 (≈ 5.58 µM) | 2 (≈ 5.58 µM)
isolate (source animal id): 244 | 2 (≈ 5.58 µM) | –
isolate (source animal id): 246 | 2 (≈ 5.58 µM) | –
isolate (source animal id): 247 | 4 (≈ 11.2 µM) | –
isolate (source animal id): 250 | 2 (≈ 5.58 µM) | –
isolate (source animal id): 252 | 4 (≈ 11.2 µM) | 2 (≈ 5.58 µM)
isolate (source animal id): 253 | – | 2 (≈ 5.58 µM)
isolate (source animal id): 259 | – | > 8
isolate (source animal id): 260 | – | 2 (≈ 5.58 µM)
isolate (source animal id): 262 | – | 2 (≈ 5.58 µM)
isolate (source animal id): 268 | 2 (≈ 5.58 µM) | –
isolate (source animal id): 282 | 1 (≈ 2.79 µM) | > 8
isolate (source animal id): 285 | 4 (≈ 11.2 µM) | –
isolate (source animal id): 287 | – | 2 (≈ 5.58 µM)
isolate (source animal id): 288 | – | 0.5 (≈ 1.4 µM)
isolate (source animal id): 289 | 2 (≈ 5.58 µM) | –
isolate (source animal id): 290 | 2 (≈ 5.58 µM) | –
isolate (source animal id): 291 | – | 0.5 (≈ 1.4 µM)
isolate (source animal id): 293 | – | 2 (≈ 5.58 µM)
isolate (source animal id): 296 | 2 (≈ 5.58 µM) | –
isolate (source animal id): 298 | 2 (≈ 5.58 µM) | 8 (≈ 22.3 µM)
isolate (source animal id): 299 | – | > 8
isolate (source animal id): 300 | – | 1 (≈ 2.79 µM)
isolate (source animal id): 301 | 2 (≈ 5.58 µM) | –
isolate (source animal id): 302 | – | > 8
isolate (source animal id): 304 | – | 8 (≈ 22.3 µM)
isolate (source animal id): 306 | – | 0.5 (≈ 1.4 µM)
isolate (source animal id): 308 | – | 0.5 (≈ 1.4 µM)
isolate (source animal id): 309 | – | 0.5 (≈ 1.4 µM)
isolate (source animal id): 310 | 4 (≈ 11.2 µM) | –
isolate (source animal id): 313 | – | 2 (≈ 5.58 µM)
isolate (source animal id): 318 | – | 1 (≈ 2.79 µM)
isolate (source animal id): 320 | 1 (≈ 2.79 µM) | 1 (≈ 2.79 µM)
isolate (source animal id): 321 | – | 2 (≈ 5.58 µM)
isolate (source animal id): 323 | – | > 8
isolate (source animal id): 324 | – | 2 (≈ 5.58 µM)
isolate (source animal id): 326 | – | 2 (≈ 5.58 µM)
isolate (source animal id): 328 | – | 2 (≈ 5.58 µM)
isolate (source animal id): 329 | – | 2 (≈ 5.58 µM)
isolate (source animal id): 331 | 2 (≈ 5.58 µM) | –
isolate (source animal id): 333 | 2 (≈ 5.58 µM) | 2 (≈ 5.58 µM)
isolate (source animal id): 335 | – | 2 (≈ 5.58 µM)
isolate (source animal id): 338 | – | 2 (≈ 5.58 µM)
isolate (source animal id): 341 | > 8 | –
